Results on two compounds are retold here after US7399888B2, “Anticonvulsant compounds” (priority 2006, dated 2008).

The test system of experiment [1] is NMRI mice. The experiment can be described thus: Maximal electroshock (MES) induced seizure model. The experiment is classed as in vivo. The settings on record: tested in mixture form. As for the experimental part:
(§1) Male NMRI albino mice weighing 19-22 g were housed in an environmentally regulated room on a 12 h light: 12 h dark cycle with 25±1° C. and had free access to food and water. The use of animals in experimental protocol was approved by the research committee of the ICCS, University of Karachi, in accordance with the international guidelines for the care and use of laboratory animals. The anticonvulsant activity of compounds in mixture form was determined after intraperitoneal administration to NMRI mice weighing 19-22 g. Maximal electroshock (MES) and subcutaneous pentylenetetrazole (scPTZ) induced seizure models were used to test the anticonvulsant properties of compounds. […] Protection against HLTE in MEST predicts the ability of a testing material to prevent the spread of seizures discharge from the epileptic focus in brain in additions effectiveness in MEST correlates with efficacy in suppressing the generalized tonic-clonic and partial seizures. […] Anticonvulsant activity in the scPTZ test identifies compounds that can raise seizure threshold in the brain.
For orientation: The maximal electroshock test induces tonic seizures with an electrical stimulus.

Experiment [2] concerns NMRI mice. The experiment in a line: subcutaneous pentylenetetrazole (scPTZ) induced seizure model. The experiment is classed as in vivo. Particulars: tested in mixture form. As for the experimental part: as §1

For `CC(=O)/C=C1/C=C(C)CC(C)(C)C1` [Isoxylitone A, 2-Propanone 1-(3,5,5-trimethyl-2-cyclohexen-1-ylidene) (1E)], the “prevention of convulsions in electrically-induced seizure model” value in the experiment on NMRI mice [1] is listed as “able to prevent convulsions”. The “prevention of convulsions in chemically-induced seizure model” value in the experiment on NMRI mice [2] is reported as “able to prevent convulsions”.

For the compound `CC(=O)/C=C1\C=C(C)CC(C)(C)C1` [Isoxylitone B, 2-Propanone, 1-(3,5,5-trimethyl-2-cyclohexen-1-ylidene)-, (1Z)], the “prevention of convulsions in electrically-induced seizure model” value in the experiment with NMRI mice [1] is reported as “able to prevent convulsions”. Moreover, the “prevention of convulsions in chemically-induced seizure model” value in the experiment on NMRI mice [2] was “able to prevent convulsions”.
